Assay results taken from patent US9663514B2 (Takeda Pharmaceutical Company Limited, priority 2011, dated 2017).
pIC50: −log10 of the molar value.

Each compound was assayed against T1, SYK (Homo sapiens, UniProt P43405) (assay: SYK inhibition: in vitro assay of SYK-mediated phosphorylation of FAM-labeled substrate (Caliper LC-3000)). Details: SYK kinase domain (residues 356-635); 2.4 nM SYK and 45 μM ATP, 3 μM 5FAM-KKKKEEIYFFFG-NH2, RT 60 min, pH 7.3; pIC50 = −log(IC50), IC50 molar.
T1 construct: The SYK kinase domain (residues 356-635) is amplified via PCR; made in house; host or cells: Sf9 insect cells (baculovirus, pFastBac1)
Type: biochemical
Protocol: The ability of compounds to inhibit SYK activity may be assessed using a variety of methods, including in vitro and in vivo assays. The following in vitro assay measures a test compound's ability to inhibit SYK-mediated phosphorylation of a FAM-labeled SYK-specific substrate (5FAM-KKKKEEIYFFFG-NH2).
SYK protein is prepared from cDNA encoding human spleen tyrosine kinase and is expressed in insect cells using a baculovirus expression vector. The cDNA (IMAGE: 3542895) is purchased from Open Biosystems. The SYK kinase domain (residues 356-635) is amplified via PCR and cloned into plasmid pFastBacl (Invitrogen) at BamHI/XbaI sites. Recombinant plasmid encoding Met-Ala-Lys-SYK(356-635)-HHHHHH is sequenced and transformed into E. coli DH10Bac strain. The recombinant bacmid DNA is isolated and transfected into Sf9 insect cells. Recombinant virus is harvested 72 h after transfection. High titer viral stock is prepared by infecting Sf9 cells at a multiplicity of infection (MOI) of approximately 0.01. A suspension of Sf9 cells (10 L) is infected with recombinant virus (MOI=5) and is incubated in a Wave Bioreactor (GE-Healthcare) for 48 h. The cells are harvested and stored at −80° C.
To purify the expressed protein, the frozen Sf9 cells (10 L) are broken into small (<1 cm) particles and suspended in a lysis buffer (300 mL) containing 20 mM Tris (pH 7.6), 0.25 mM TCEP, 100 mM NaCl, 5% glycerol and a protease inhibitor. The suspension is stirred at RT until completely thawed, lysed an additional 2-4 min on a rotary blade homogenizer, and then centrifuged at 4200 g for 1 h. Following centrifugation, the supernatant is poured through cheese cloth and combined with a nickel chelating resin (Probond Resin™, Invitrogen) which is pre-equilibrated in a wash buffer containing 10 mM Tris (pH 7.6), 0.25 mM TCEP, 300 mM NaCl, 5% glycerol, and 20 mM imidazole. The mixture is agitated for 3 h in a cold room and then centrifuged at 900 g for 10 min. The resin is dispersed in wash buffer (50 mL), centrifuged for 10 min at 900 g, re-dispersed in a small amount of wash buffer (5 mL), and then pour into a disposable Poly-Prep chromatography column, through which wash buffer is passed by gravity until no protein is observed in coomassie buffer (about 120 mL of wash buffer). An elution buffer (30 mL) containing 10 mM HEPES (pH 7.4), 150 mM NaCl, 10% glycerol, 5 mM DTT, and 400 mM imidazole is used to elute the SYK protein from the resin. The eluate is concentrated (5 mL) and further purified on a Superdex 200 column (1.2 mL/min for 160 min, 10 mM HEPES (pH 7.4), 10 mM NaCl, 10 mM MgCl, 0.1 mM EDTA, and 0.25 mM TCEP). The chromatographed fractions are run on SDS-PAGE and the requisite fractions are pooled and concentrated. Final delivery buffer is 10 mM HEPES (pH 7.4), 10 mM Methione, 150 mM NaCl, 10% glycerol, 5 mM DTT.
SYK inhibition is determined using a black 384 well plate format in buffer containing 50 mM HEPES, 10 mM NaCl, 10 mM MgCl2, 0.2 mM EDTA, 0.01% EDA (Brij®35), 1 mM DTT, and 0.1 mg/ml BSA at pH 7.3. Each test compound is prepared in DMSO using 2-fold serial dilutions for 11 data points, which are added to the buffer so that each dilution contains 3% DMSO. To each well is added 2 μL of 3 μM SFAM-KKKKEEIYFFFG-NH2 (in buffer), 2 μL of diluted test compound (3% DMSO in buffer), and 2 μL of 2.4 nM SYK and 45 μM ATP (in buffer). The reaction mixture is incubated at RT for 60 min, and quenched by adding 50 mM Hepes, 30 mM EDTA, 0.1% Triton X-100 (pH 7.3). To quantify the fluorescent-labeled substrate and product following reaction, the test plate is loaded on a Caliper LC-3000, which measures percent of conversion by microfluidic-based separation. Corresponding IC50 values are calculated by non-linear curve fitting of the compound concentrations and percent of inhibition to the standard IC50 equation and reported as pIC50, i.e., −log(IC50), where IC50 is molar concentration.

| pIC50 | Structure (SMILES) |
| --- | --- |
| 8.30 | N[C@H]1CCCC[C@H]1Nc1nc(-c2cc3ncccc3s2)c2c(c1F)CNC2=O [Example 26, 6-((1R,2S)-2-Aminocyclohexylamino)-7-fluoro-4-(thieno[3,2-b]pyridin-2-yl)-1H-pyrrolo[3,4-c]pyridin-3(2H)-one] |
| 8.30 | N[C@H]1COCC[C@H]1Nc1nc(-c2cc(F)cs2)c2c(c1F)CNC2=O [Example 27, 6-((3R,4R)-3-Aminotetrahydro-2H-pyran-4-ylamino)-7-fluoro-4-(4-fluorothiophene-2-yl)-1H-pyrrolo[3,4-c]pyridin-3(2H)-one] |
| 8.80 | N[C@H]1CCCC[C@H]1Nc1nc(-c2cc(F)cs2)c2c(c1F)CNC2=O [Example 28, 6-((1R,2S)-2-Aminocyclohexylamino)-7-fluoro-4-(4-fluorothiophene-2-yl)-1H-pyrrolo[3,4-c]pyridin-3(2H)-one] |
| 10.00 | Cn1ncc2sc(-c3nc(N[C@@H]4CCCC[C@@H]4N)c(F)c4c3C(=O)NC4)cc21 [Example 29, 6-((1R,2S)-2-Aminocyclohexylamino)-7-fluoro-4-(1-methyl-1H-thieno[3,2-c]pyrazol-5-yl)-1H-pyrrolo[3,4-c]pyridin-3(2H)-one] |
| 10.00 | Cn1ncc2sc(-c3nc(N[C@@H]4CCOC[C@@H]4N)c(F)c4c3C(=O)NC4)cc21 [Example 30, 6-((3R,4R)-3-Aminotetrahydro-2H-pyran-4-ylamino)-7-fluoro-4-(1-methyl-1H-thieno[3,2-c]pyrazol-5-yl)-1H-pyrrolo[3,4-c]pyridin-3(2H)-one] |
| 9.90 | Cc1nn(C)c2cc(-c3nc(N[C@@H]4CCCC[C@@H]4N)c(F)c4c3C(=O)NC4)sc12 [Example 31, 6-((1R,2S)-2-Aminocyclohexylamino)-4-(1,3-dimethyl-1H-thieno[3,2-c]pyrazol-5-yl)-7-fluoro-1H-pyrrolo[3,4-c]pyridin-3(2H)-one] |
| 9.70 | Cc1nn(C)c2cc(-c3nc(N[C@@H]4CCOC[C@@H]4N)c(F)c4c3C(=O)NC4)sc12 [Example 32, 6-((3R,4R)-3-Aminotetrahydro-2H-pyran-4-ylamino)-4-(1,3-dimethyl-1H-thieno[3,2-c]pyrazol-5-yl)-7-fluoro-1H-pyrrolo[3,4-c]pyridin-3(2H)-one] |
| 9.20 | Cc1c2sc(-c3nc(N[C@@H]4CCCC[C@@H]4N)c(F)c4c3C(=O)NC4)cc2nn1C [Example 33, 6-((1R,2S)-2-Aminocyclohexylamino)-4-(2,3-dimethyl-2H-thieno[3,2-c]pyrazol-5-yl)-7-fluoro-1H-pyrrolo[3,4-c]pyridin-3(2H)-one] |
| 8.90 | Cc1c2sc(-c3nc(N[C@@H]4CCOC[C@@H]4N)c(F)c4c3C(=O)NC4)cc2nn1C [Example 34, 6-((3R,4R)-3-Aminotetrahydro-2H-pyran-4-ylamino)-4-(2,3-dimethyl-2H-thieno[3,2-c]pyrazol-5-yl)-7-fluoro-1H-pyrrolo[3,4-c]pyridin-3(2H)-one] |
| 8.00 | N[C@H]1CCCC[C@H]1Nc1nc(-c2cc3n(c2)CCOC3)c2c(c1F)CNC2=O [Example 35, 6-((1R,2S)-2-Aminocyclohexylamino)-4-(3,4-dihydro-1H-pyrrolo[2,1-c][1,4]oxazin-7-yl)-7-fluoro-1H-pyrrolo[3,4-c]pyridin-3(2H)-one] |
| 9.90 | Cc1nn(C)c2sc(-c3nc(N[C@@H]4CCCC[C@@H]4N)c(F)c4c3C(=O)NC4)cc12 [Example 36, 6-((1R,2S)-2-Aminocyclohexylamino)-4-(1,3-dimethyl-1H-thieno[2,3-c]pyrazol-5-yl)-7-fluoro-1H-pyrrolo[3,4-c]pyridin-3(2H)-one] |
| 9.50 | Cc1nn(C)c2sc(-c3nc(N[C@@H]4CCOC[C@@H]4N)c(F)c4c3C(=O)NC4)cc12 [Example 37, 6-((3R,4R)-3-Aminotetrahydro-2H-pyran-4-ylamino)-4-(1,3-dimethyl-1H-thieno[2,3-c]pyrazol-5-yl)-7-fluoro-1H-pyrrolo[3,4-c]pyridin-3(2H)-one] |
| 7.70 | CCn1cc(-c2nc(N[C@@H]3CCOC[C@@H]3N)c(F)c3c2C(=O)NC3)cn1 [Example 38, 6-((3R,4R)-3-Aminotetrahydro-2H-pyran-4-ylamino)-4-(1-ethyl-1H-pyrazol-4-yl)-7-fluoro-1H-pyrrolo[3,4-c]pyridin-3(2H)-one] |
| 8.70 | CCOC(=O)c1ccn2cc(-c3nc(N[C@@H]4CCOC[C@@H]4N)c(F)c4c3C(=O)NC4)cc2c1 [Example 39, Ethyl 2-(6-((3R,4R)-3-Aminotetrahydro-2H-pyran-4-ylamino)-7-fluoro-3-oxo-2,3-dihydro-1H-pyrrolo[3,4-c]pyridin-4-yl)indolizine-7-carboxylate] |
| 9.70 | N[C@H]1COCC[C@H]1Nc1nc(-c2cc3cc(C(=O)O)ccn3c2)c2c(c1F)CNC2=O [Example 40, 2-(6-((3R,4R)-3-Aminotetrahydro-2H-pyran-4-ylamino)-7-fluoro-3-oxo-2,3-dihydro-1H-pyrrolo[3,4-c]pyridin-4-yl)indolizine-7-carboxylic acid] |
| 7.70 | N[C@H]1COCC[C@H]1Nc1nc(-c2cc3n(c2)CCC3=O)c2c(c1F)CNC2=O [Example 41, 6-((3R,4R)-3-Aminotetrahydro-2H-pyran-4-ylamino)-7-fluoro-4-(1-oxo-2,3-dihydro-1H-pyrrolizin-6-yl)-1H-pyrrolo[3,4-c]pyridin-3(2H)-one] |
| 9.20 | Cc1cc(-c2nc(N[C@@H]3CCCC[C@@H]3N)c(F)c3c2C(=O)NC3)sn1 [Example 42, 6-((1R,2S)-2-Aminocyclohexylamino)-7-fluoro-4-(3-methylisothiazol-5-yl)-1H-pyaolo[3,4-c]pyridin-3(2H)-one] |
| 7.20 | N[C@H]1CCCC[C@H]1Nc1nc(C#Cc2ccccc2)c2c(c1F)CNC2=O [Example 43, 6-((1R,2S)-2-Aminocyclohexylamino)-7-fluoro-4-(phenylethynyl)-1H-pyrrolo[3,4-c]pyridin-3(2H)-one] |
| 7.20 | N[C@H]1COCC[C@H]1Nc1nc(C#Cc2ccccc2)c2c(c1F)CNC2=O [Example 44, 6-((3R,4R)-3-Aminotetrahydro-2H-pyran-4-ylamino)-7-fluoro-4-(phenylethynyl)-1H-pyrrolo[3,4-c]pyridin-3(2H)-one] |
| 8.60 | N[C@H]1CCCC[C@H]1Nc1nc(/C=C/c2ccc(F)cc2)c2c(c1F)CNC2=O [Example 45, 6-((1R,2S)-2-Aminocyclohexylamino)-7-fluoro-4-(4-fluorostyryl)-1H-pyrrolo[3,4-c]pyridin-3(2H)-one] |
| 8.30 | N[C@H]1COCC[C@H]1Nc1nc(/C=C/c2ccc(F)cc2)c2c(c1F)CNC2=O [Example 46, 6-((3R,4R)-3-Aminotetrahydro-2H-pyran-4-ylamino)-7-fluoro-4-(4-fluorostyryl)-1H-pyrrolo[3,4-c]pyridin-3(2H)-one] |
| 7.00 | N[C@H]1CCCC[C@H]1Nc1nc(CCc2ccccc2)c2c(c1F)CNC2=O [Example 47, 6-((1R,2S)-2-Aminocyclohexylamino)-7-fluoro-4-phenethyl-1H-pyrrolo[3,4-c]pyridin-3 (2H)-one] |
| 7.00 | N[C@H]1COCC[C@H]1Nc1nc(CCc2ccccc2)c2c(c1F)CNC2=O [Example 48] |
